Entries after “also recorded” stand apart in the source; their conditions may differ.
Columns and labels:
SCD1 [1] = molecular target: T1, SCD1 (Homo sapiens, UniProt O00767); test: C18:1 labeling from U-13C-glucose and U-13C-glutamine under SCD1 inhibition, A549 cells; assay type: cell-based; conditions: 200 nM CAY10566, A549 cells
T1 construct: endogenous in cells; host or cells: A549 lung cancer cells (ATCC)
T1 sequence (O00767 1-359): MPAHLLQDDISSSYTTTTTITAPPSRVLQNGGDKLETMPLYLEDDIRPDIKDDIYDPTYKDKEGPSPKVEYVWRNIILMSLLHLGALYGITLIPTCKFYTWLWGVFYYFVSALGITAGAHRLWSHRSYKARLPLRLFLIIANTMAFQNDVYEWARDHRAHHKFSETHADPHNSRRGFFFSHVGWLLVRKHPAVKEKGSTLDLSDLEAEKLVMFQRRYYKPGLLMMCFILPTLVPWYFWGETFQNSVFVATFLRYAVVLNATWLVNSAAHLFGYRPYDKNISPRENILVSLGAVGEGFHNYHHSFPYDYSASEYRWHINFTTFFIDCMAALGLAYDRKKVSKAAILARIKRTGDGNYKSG
Excerpt: (§1) Cell lines were from ATCC with the following exceptions: the immortalized Baby Mouse Kidney (iBMK) cell lines were derived from primary kidney epithelial cells from Bax^−/−/Bak^−/− mice, immortalized by E1A and dominant-negative p53 expression, and transfected with control vector, human oncogenic H-Ras^V12G, or myrAKT (31); and the Human Pancreatic Nestin Expressing (HPNE) cells (a generous gift of A. Maitra) were developed from human pancreatic duct by transduction with a retroviral expression vector (pBABEpuro) containing the hTERT gene and transfected with control vector or human oncogenic K-Ras^G12D. Cell lines were routinely passaged in Dulbecco's Modified Eagle Medium (DMEM, Mediatech) with 25 mM glucose and 4 mM glutamine and supplemented with 10% Fetal Bovine Serum (HyClone), 25 IU/ml penicillin, and 25 μg/ml streptomycin (MP Biomedicals) and split at 80% confluence. Metabolic experiments were performed in 6 cm culture dishes with 3 ml of DMEM containing 10% dialyzed serum (DFBS, HyClone). For isotope labeling, glucose and glutamine were replaced with their U-^13C-labeled forms (Cambridge Isotope Labs). Hypoxia experiments were performed in a hypoxic glove box (0.5% or 1% O2 as indicated, 5% CO2 and 94-94.5% N2, 37° C.) (Coy Laboratory Products). Cells and media were equilibrated in low oxygen overnight before experiment initiation. CAY10566 was from Cayman Chemical. […]

SCD1 [2] = molecular target: T2, SCD1 (Mus musculus, UniProt P13516); test: C18:1 labeling from U-13C-glucose and U-13C-glutamine under SCD1 inhibition, iBMK cells; assay type: cell-based; conditions: 200 nM CAY10566, iBMK-H-Ras^V12G and iBMK-myrAkt cells, 48 h
T2 construct: endogenous in cells; host or cells: iBMK cells transfected with human H-Ras V12G or myrAkt (SCD1 itself not transfected)
T2 sequence (P13516 1-355): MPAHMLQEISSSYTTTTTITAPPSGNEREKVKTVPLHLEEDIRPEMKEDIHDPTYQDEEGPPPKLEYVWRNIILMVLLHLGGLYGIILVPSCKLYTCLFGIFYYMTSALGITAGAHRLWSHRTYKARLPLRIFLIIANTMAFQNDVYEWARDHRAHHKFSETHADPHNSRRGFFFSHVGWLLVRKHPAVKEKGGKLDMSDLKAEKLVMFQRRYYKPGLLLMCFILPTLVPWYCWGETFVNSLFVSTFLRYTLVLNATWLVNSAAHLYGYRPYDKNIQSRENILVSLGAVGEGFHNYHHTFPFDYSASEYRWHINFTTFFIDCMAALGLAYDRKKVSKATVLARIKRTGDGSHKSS
Excerpt: as §1

A549 lung cancer cells = test: Cell growth with SCD1 inhibitor (xCELLigence real-time proliferation / culture dishes); assay type: cell-based, human
Excerpt: (§2) Cell lines were from ATCC with the following exceptions: the immortalized Baby Mouse Kidney (iBMK) cell lines were derived from primary kidney epithelial cells from Bax^−/−/Bak^−/− mice, immortalized by E1A and dominant-negative p53 expression, and transfected with control vector, human oncogenic H-Ras^V12G, or myrAKT (31); and the Human Pancreatic Nestin Expressing (HPNE) cells (a generous gift of A. Maitra) were developed from human pancreatic duct by transduction with a retroviral expression vector (pBABEpuro) containing the hTERT gene and transfected with control vector or human oncogenic K-Ras^G12D. Cell lines were routinely passaged in Dulbecco's Modified Eagle Medium (DMEM, Mediatech) with 25 mM glucose and 4 mM glutamine and supplemented with 10% Fetal Bovine Serum (HyClone), 25 IU/ml penicillin, and 25 μg/ml streptomycin (MP Biomedicals) and split at 80% confluence. Metabolic experiments were performed in 6 cm culture dishes with 3 ml of DMEM containing 10% dialyzed serum (DFBS, HyClone). For isotope labeling, glucose and glutamine were replaced with their U-^13C-labeled forms (Cambridge Isotope Labs). Hypoxia experiments were performed in a hypoxic glove box (0.5% or 1% O2 as indicated, 5% CO2 and 94-94.5% N2, 37° C.) (Coy Laboratory Products). Cells and media were equilibrated in low oxygen overnight before experiment initiation. CAY10566 was from Cayman Chemical. Lipid supplements were from Avanti Polar Lipids. LPC(18:1) and LPC(18:0) were dissolved in phosphate buffered saline (PBS); MG(18:1) in methanol; and PC(16:0-18:1) in 1:9 chloroform:methanol. Organic solvents were <0.1% v/v in the medium.
(§3) Cell proliferation was determined with either Packed Cell Volume tubes (PCV, Techno Plastic Products AG) or with the xCELLigence system (Roche). Animal studies were performed following the guidelines for proper and humane use of animals in research under an IACUC-approved protocol. […] Xenograft tumors were measured biweekly and tumor volume calculated as volume=(length×width^2×π/6).

iBMK-H-Ras^V12G cells [3] = test: Cell growth with SCD1 inhibitor; assay type: cell-based, mouse; conditions: 10% serum, for 3 population doublings
Excerpt: as §1, with “Labs).” for “Labs). Hypoxia experiments were performed in a hypoxic glove box (0.5% or 1% O2 as indicated, 5% CO2 and 94-94.5% N2, 37° C.) (Coy Laboratory Products). Cells and media were equilibrated in low oxygen overnight before experiment initiation. CAY10566 was from Cayman Chemical.”
(§4) Cell proliferation was determined with either Packed Cell Volume tubes (PCV, Techno Plastic Products AG) or with the xCELLigence system (Roche). […] Xenograft tumors were measured biweekly and tumor volume calculated as volume=(length×width^2×π/6).

iBMK-myrAkt cells [4] = test: Cell growth with SCD1 inhibitor; assay type: cell-based, mouse; conditions: 10% serum
Excerpt: as §1, with “Labs).” for “Labs). Hypoxia experiments were performed in a hypoxic glove box (0.5% or 1% O2 as indicated, 5% CO2 and 94-94.5% N2, 37° C.) (Coy Laboratory Products). Cells and media were equilibrated in low oxygen overnight before experiment initiation. CAY10566 was from Cayman Chemical.”
as §4

iBMK-H-Ras^V12G tumors = test: Allograft tumor growth in athymic nude mice; assay type: in vivo, mouse; conditions: Ras-driven tumors, 2.5 mg/kg CAY10566 p.o. BID, day 13 or 14 post therapy
Description: (§5) Cell proliferation was determined with either Packed Cell Volume tubes (PCV, Techno Plastic Products AG) or with the xCELLigence system (Roche). Animal studies were performed following the guidelines for proper and humane use of animals in research under an IACUC-approved protocol. To generate allografts, 1×10^7 iBMK cells were implanted in matrigel (BD Biosciences) into nu/nu athymic female mice. After establishment of palpable tumors, mice were randomized to receive 2.5 mg/kg BID CAY10566 p.o. in 0.5% methylcellulose or vehicle control. Xenograft tumors were measured biweekly and tumor volume calculated as volume=(length×width^2×π/6).

iBMK-myrAkt tumors = test: Allograft tumor growth in athymic nude mice; assay type: in vivo, mouse; conditions: Akt-driven tumors, 2.5 mg/kg CAY10566 p.o. BID, day 13 or 14 post therapy
Description: as §5

iBMK cells = test: Lipid composition and C18:1 import after LPC(18:1) supplementation; assay type: cell-based, mouse; conditions: 20 μM LPC(18:1)
Excerpt: as §1

iBMK-H-Ras^V12G cells [5] = test: Packed cell volume with SCD1 inhibitor plus supplemented lipids; assay type: cell-based, mouse; conditions: 200 nM SCDi (CAY10566), 20 μM lipid, 72 h
Excerpt: as §2, §3

iBMK-myrAkt cells [6] = test: as above; assay type: cell-based, mouse; conditions: 200 nM SCDi (CAY10566), 20 μM lipid, 72 h
Excerpt: as §2, §3

A549 cells = test: as above; assay type: cell-based, human; conditions: 200 nM SCDi (CAY10566), 20 μM lipid, 72 h
Excerpt: as §1, with “Labs).” for “Labs). Hypoxia experiments were performed in a hypoxic glove box (0.5% or 1% O2 as indicated, 5% CO2 and 94-94.5% N2, 37° C.) (Coy Laboratory Products). Cells and media were equilibrated in low oxygen overnight before experiment initiation. CAY10566 was from Cayman Chemical.”
as §4

cells = test: Rescue of cells from SCD1 inhibition (discussion summary); assay type: cell-based; conditions: cell line not stated

Row | Molecule | C18:1 labeling from U-13C-glucose and U-13C-glutamine (SCD1 [1]) | C18:1 labeling / SCD1 block (SCD1 [2]) | cell growth in real-time cell proliferation assay (A549 lung cancer cells; 200 nM CAY10566, 10% serum) | cell growth in standard cell culture conditions (A549 lung cancer cells; 200 nM CAY10566, first 48 h of growth) | cell growth, sensitivity to SCD1 inhibition (A549 lung cancer cells; SCD1 inhibitor, 2% serum) | cell growth (iBMK-H-Ras^V12G cells [3]) | cell growth (iBMK-myrAkt cells [4]) | mean tumor volume relative to untreated tumors (iBMK-H-Ras^V12G tumors) | mean tumor volume relative to untreated tumors (iBMK-myrAkt tumors) | desaturation index (C18:1/C18:0) (iBMK cells; 72 h, iBMK-H-Ras^V12G cells) | fraction of C18:1 derived from import (iBMK cells; both iBMK-H-Ras^V12G and iBMK-myrAkt cells) | proliferation / cell growth during SCD1 inhibition with supplemented lipid (iBMK-H-Ras^V12G cells [5]) | proliferation during SCD1 inhibition with supplemented lipid (iBMK-myrAkt cells [6]) | proliferation during SCD1 inhibition with supplemented lipid (A549 cells) | rescue of cells from SCD1 inhibition (cells)
1 | Cc1nnc(-c2ccc(N3CCC(Oc4cc(F)ccc4Cl)CC3)nn2)o1 [CAY10566] | completely blocked; also recorded: blocks C18:1 labeling | fully blocked; also recorded: sufficient to fully block C18:1 labeling | did not impair cell growth | did not impair cell growth | sensitive | grew almost normally | severely impaired | 0.67+/−0.05 | 0.51+/−0.04 |  |  |  |  |  | 
2 | CCCCCCCC/C=C\CCCCCCCC(=O)OC[C@@H](O)COP(=O)([O-])OCC[N+](C)(C)C [LPC(18:1), oleoyl lysophosphatidylcholine] |  |  |  |  |  |  |  |  |  | increased significantly and selectively | increasing | fully restored proliferation | only partially | complete rescue | rescues cells from SCD1 inhibition
3 | oleolyl-monoacylglycerol [MG(18:1)] |  |  |  |  |  |  |  |  |  |  |  | restored cell proliferation |  |  | 

From patent publication US20160120832A1, “LIPID SCAVENGING IN RAS CANCERS” (MEMORIAL SLOAN KETTERING CANCER CENTER, priority 2013, published 2016)
